Laboratory results reported in US12251364B2, “Treating non-alcoholic steatohepatitis with cck inhibitors” (priority 2018, dated 2025).
“Also recorded” adds a separate entry of the source. Blank lines part the entries; values can stand above or below the compound they belong to.

How the values were obtained:
[1] = PIVENS trial; cited from earlier work
[2] = system: mice on 75%-CDE diet (NASH, fibrosis and HCC); assay: Prevention study: CDE diet-induced NASH in mice, proglumide in drinking water from start of diet; assay type: in vivo, mouse (female C57BL/6)
Method: All mouse studies were performed in an ethical fashion and approved by the Institutional Animal Care and Use Committee, protocol #2016-1193 for animal research by Georgetown University. Female C57BL/6 mice (body weight of >20 g) were obtained from Charles River Laboratory (Germantown, MD). Mice were housed with five per cage with filter-top cages and housing light cycled q12 hrs; on-off. […] The first group received a modified Choline Deficient Diet with 75% Ethionine supplemented diet (CDE) as previously described by […] et al. “A modified choline-deficient, ethionine-supplemented diet reduces morbidity and retains a liver progenitor cell response in mice,” Dis Model Mech 8:1635-1641 (2015). […] The control mice received the same diet with choline. Both diets contained casein as the major source of protein and lard (saturated fat) as the primary source of fat. The diet composition is shown in Table 1 and is very similar to the Western diet (Roberts et al. “Western diet-induced hepatic steatosis and alterations in the liver transcriptome in adult Brown-Norway rats,” BMC Gastroenterol. 15:151 (2015)) where the diet consists of a high fat and high sugar and is often used in experimental animal diets to induce NAFLD. The food intake was measured by weighing food consumed to assure mice were eating equal amounts of food in each group, and animals ate ad libitum. Some mice on both diets were treated with the CCK receptor antagonist proglumide (Tocris Bioscience, Bristol, UK) at a concentration of 0.1 mg/ml and the estimated amount ingested per mouse was 30 mg/kg/d that was previously shown to block the CCK receptor (Smith et al. “Cholecystokinin receptor antagonist halts progression of pancreatic cancer precursor lesions and fibrosis in mice,” Pancreas 43:1050-1059 (2014)). Another cohort received untreated drinking water. The study design included two different parts: a “prevention study” and a “reversal study” (FIG. 1). In the prevention study, the goal was to determine if treatment with proglumide could prevent NASH, fibrosis and HCC if started at the same time of the initiation of the high fat CDE diet. Initially mice were randomized into one of four treatment group (FIG. 1). Sixty-five mice received the 75%-CDE diet and untreated drinking water (CDE/Reg). Of these (N=5 each) mice were ethically euthanized and livers dissected and analyzed histologically to assess for evidence of NASH at weeks 4 and 8. When NASH was becoming apparent, mice were continued on this diet and some (N=10) were euthanized at week 12 and some (N=25) were euthanized at week 18. Five mice died in the CDE/Reg diet in the first 12 weeks. A parallel cohort of mice (N=25) were also given the CDE diet but their drinking water was treated with the CCK-receptor antagonist proglumide. In this cohort, some (N=10) were euthanized, blood drawn, and liver examined histologically at week 12. The remainder (N=15) were euthanized and examined at week 18 to compare to the CDE/Reg group. Twenty mice each were treated with the control diet, and half (N=10) in this group received proglumide water and half received untreated drinking water. Half of the control mice were euthanized at the first time point of 12 weeks and the remainder was euthanized at the end of the experiment at 18 weeks. Subgroups of mice were ethically euthanized after CO2 asphyxiation and cervical dislocation at one of 4 different time points: weeks 4, 8, 12, or 18. Blood was collected by pericardiac puncture and centrifuged. Serum was analyzed by VRL Laboratories (Gaithersburg, MD). The following liver tests were evaluated and the normal range for mouse is shown: Alkaline phosphatase (35-275 u/L); Alanine aminotransferase, ALT (17-129 u/L); Aspartate aminotransferase, AST (46-392 u/L); and total bilirubin (0-0.9 mg/dL). The liver tissues were fixed in 4% paraformaldehyde, paraffin embedded, and 8 μm sections were cut. Mounted sections were stained with Hematoxylin & Eosin or Masson's trichrome. […]

[3] = system: mice on CDE diet with established NASH; assay: Reversal (recovery) study: established NASH after 12 weeks of CDE diet, then proglumide for 6 weeks; assay type: in vivo, mouse (female C57BL/6)
Method: All mouse studies were performed in an ethical fashion and approved by the Institutional Animal Care and Use Committee, protocol #2016-1193 for animal research by Georgetown University. Female C57BL/6 mice (body weight of >20 g) were obtained from Charles River Laboratory (Germantown, MD). Mice were housed with five per cage with filter-top cages and housing light cycled q12 hrs; on-off. […] The first group received a modified Choline Deficient Diet with 75% Ethionine supplemented diet (CDE) as previously described by […] et al. “A modified choline-deficient, ethionine-supplemented diet reduces morbidity and retains a liver progenitor cell response in mice,” Dis Model Mech 8:1635-1641 (2015). […] The control mice received the same diet with choline. Both diets contained casein as the major source of protein and lard (saturated fat) as the primary source of fat. The diet composition is shown in Table 1 and is very similar to the Western diet (Roberts et al. “Western diet-induced hepatic steatosis and alterations in the liver transcriptome in adult Brown-Norway rats,” BMC Gastroenterol. 15:151 (2015)) where the diet consists of a high fat and high sugar and is often used in experimental animal diets to induce NAFLD. The food intake was measured by weighing food consumed to assure mice were eating equal amounts of food in each group, and animals ate ad libitum. Some mice on both diets were treated with the CCK receptor antagonist proglumide (Tocris Bioscience, Bristol, UK) at a concentration of 0.1 mg/ml and the estimated amount ingested per mouse was 30 mg/kg/d that was previously shown to block the CCK receptor (Smith et al. “Cholecystokinin receptor antagonist halts progression of pancreatic cancer precursor lesions and fibrosis in mice,” Pancreas 43:1050-1059 (2014)). Another cohort received untreated drinking water. The reversal study, took mice that had been on the CDE diet and untreated water (CDE/Reg) for 12 weeks (a time determined to result in the mice having NASH histologically and biochemical hepatitis). Mice were randomly allocated to one of two groups at 12 weeks. The first group (N=15) continued on the CDE diet and untreated water and the second group (N=15) also continued on the CDE diet but then received proglumide in the drinking water at the same concentration as the prevention study (0.1 mg/ml). The purpose of the reversal study was to see if proglumide could reverse any of the histologic and biochemical abnormalities of NASH from the 12-week CDE/regular water diet. The other group continued on the CDE diet with untreated drinking water. The animals in each group were weighed weekly. At the termination of the experiment the animal body weight and liver weight were recorded. Subgroups of mice were ethically euthanized after CO2 asphyxiation and cervical dislocation at one of 4 different time points: weeks 4, 8, 12, or 18. Blood was collected by pericardiac puncture and centrifuged. Serum was analyzed by VRL Laboratories (Gaithersburg, MD). The following liver tests were evaluated and the normal range for mouse is shown: Alkaline phosphatase (35-275 u/L); Alanine aminotransferase, ALT (17-129 u/L); Aspartate aminotransferase, AST (46-392 u/L); and total bilirubin (0-0.9 mg/dL). The liver tissues were fixed in 4% paraformaldehyde, paraffin embedded, and 8 μm sections were cut. Mounted sections were stained with Hematoxylin & Eosin or Masson's trichrome. A Liver pathologist blinded to the treatments and time period scored tissues for inflammation, fibrosis, steatosis, and whether there was evidence of dysplastic nodules or cancer (Table 2). Histology was scored for grade of inflammation (0-3), fibrosis (0-4), steatosis (0-3), balloon degeneration (0-2) and dysplasia or cancer (0-2). For analysis, a NASH score was defined as the combination of the steatosis and the balloon degeneration score. […]

[4] = system: mice on control high fat diet; assay: Control high fat diet with choline, proglumide-treated versus untreated water; assay type: in vivo, mouse (female C57BL/6)
Method: All mouse studies were performed in an ethical fashion and approved by the Institutional Animal Care and Use Committee, protocol #2016-1193 for animal research by Georgetown University. Female C57BL/6 mice (body weight of >20 g) were obtained from Charles River Laboratory (Germantown, MD). Mice were housed with five per cage with filter-top cages and housing light cycled q12 hrs; on-off.
Mice were fed one of two custom high fat diets from MP Biomedicals, LLC (Solon, Ohio). The first group received a modified Choline Deficient Diet with 75% Ethionine supplemented diet (CDE) as previously described by Passman et al. “A modified choline-deficient, ethionine-supplemented diet reduces morbidity and retains a liver progenitor cell response in mice,” Dis Model Mech 8:1635-1641 (2015). […] The control mice received the same diet with choline. Both diets contained casein as the major source of protein and lard (saturated fat) as the primary source of fat. […] The food intake was measured by weighing food consumed to assure mice were eating equal amounts of food in each group, and animals ate ad libitum. […]
Subgroups of mice were ethically euthanized after CO2 asphyxiation and cervical dislocation at one of 4 different time points: weeks 4, 8, 12, or 18. […] Serum was analyzed by VRL Laboratories (Gaithersburg, MD). The following liver tests were evaluated and the normal range for mouse is shown: Alkaline phosphatase (35-275 u/L); Alanine aminotransferase, ALT (17-129 u/L); Aspartate aminotransferase, AST (46-392 u/L); and total bilirubin (0-0.9 mg/dL).
The liver tissues were fixed in 4% paraformaldehyde, paraffin embedded, and 8 μm sections were cut. […] A Liver pathologist blinded to the treatments and time period scored tissues for inflammation, fibrosis, steatosis, and whether there was evidence of dysplastic nodules or cancer (Table 2). Histology was scored for grade of inflammation (0-3), fibrosis (0-4), steatosis (0-3), balloon degeneration (0-2) and dysplasia or cancer (0-2). […]

[5] = CDE/Prog vs CDE/Reg, weeks 12 and 18
[6] = CDE/Reg 12 weeks then proglumide water 6 weeks

Compound: Vitamin E
- reversal of fibrosis [1]: neither compound statistically reversed fibrosis

- abnormalities in hepatic blood tests or weight ([4]; control diet with proglumide vs untreated drinking water): no evidence of abnormalities
Compound: CCCN(CCC)C(=O)C(CCC(=O)O)NC(=O)c1ccccc1 (centres unmarked) [proglumide]
- serum AST levels ([2]; CDE diet + proglumide 0.1 mg/ml in drinking water from day 0 (Prevention), vs CDE/Reg): restored to near normal; also recorded: at or near normal levels
- ALT serum levels, week 12 ([2]; CDE diet + proglumide water from day 0, week 12): did not prevent elevation
- ALT serum levels, week 18 ([2]; CDE diet + proglumide water from day 0, week 18): did decrease ALT values; also recorded: able to prevent this increase only after 18 weeks
- serum total bilirubin ([2]; CDE diet + proglumide water from day 0, weeks 12 and 18, vs CDE/Reg): completely prevented; also recorded: prevented bilirubin level increases
- alkaline phosphatase blood levels ([2]; CDE diet + proglumide water, vs CDE/Reg): not prevented or reversed; also recorded: did not decrease alkaline phosphatase
- histologic features/changes of NASH [2, 5]: significantly decreased; also recorded: prevented
- histologic fibrosis score [2, 5]: prevented; also recorded: decreased fibrosis
- histologic inflammation score [2, 5]: prevented; also recorded: marked decrease in inflammation; also recorded: decreased inflammation
- histologic steatosis score [2, 5]: prevented; also recorded: decreased steatosis
- balloon degeneration ([2]; CDE/Prog, week 12 liver histology): minimal or no balloon degeneration
- mice with dysplastic nodules or HCC ([2]; week 18, CDE/Prog prevention arm N=15, CDE/Reg 8 of 23): none and no dysplasia or HCC
- serum AST levels ([3]; CDE/Reg 12 weeks then CDE/Prog 6 weeks (Recovery)): significantly decreased
- HCC or dysplastic nodules ([3]; CDE/Reg 12 weeks then CDE/proglumide 6 weeks, N=15, week 18): no evidence of HCC or dysplastic nodules and none
- alkaline phosphatase levels [3, 6]: not prevented or reversed
- serum total bilirubin [3, 6]: returned to the normal range; also recorded: decreased bilirubin
- ALT serum levels ([3]; Recovery vs CDE/Reg for 18 full weeks): this difference was not significant
- histologic fibrosis score ([3]; Recovery, week 18): able to decrease; also recorded: improved
- histologic inflammation score ([3]; Recovery, week 18): able to decrease; also recorded: improved
- liver blood tests and histology ([3]; proglumide for 6 weeks while continuing the CDE diet): improved significantly
- body weight ([4]; control diet, proglumide water vs untreated water): did not weigh more
- liver histology ([4]; control diet, proglumide water vs untreated water, week 18): no evidence of NASH; also recorded: No differences
